Measurements from US7541472B2 (priority 2004, dated 2009).

Key:
Experiment in all cases: microbe, parasite or virus in culture
Format in all cases: cell-based
[1] = system: Botrytis cinerea; conditions: read-out: IC50 B. cinerea
[2] = system: Phytophthora infestans; conditions: for IC50 P. infestans: fungal growth on 1.5% agar minimal media, 20° C., 3-5 days, 3-fold serial dilutions, C.V. class in parentheses; for IC50: Phytophthora infestans, read-out: IC50 P. infestans
[3] = system: Stagonospora nodorum; conditions: for IC50: Parastagonospora nodorum, read-out: IC50 S. nodorum
[4] = system: Septoria tritici; conditions: for IC50: Zymoseptoria tritici, read-out: IC50 S. tritici

C=C(C(=O)OCc1ccc(Oc2ccccc2)cc1)C(O)c1nccs1 (stereo not drawn) [Compound 30, 4-Phenoxyphenylmethyl β-hydroxy-α-methylene-2-thiazolepropanoate]
IC50 [1]: 16 to 25 µM | IC50 P. infestans [2]: A (b) | IC50 [3]: > 25 µM | IC50 [4]: 6 to 15 µM

C=C(C(=O)OCc1ccc(Oc2ccccc2)cc1)C(O)c1cccnc1 (stereo not drawn) [Compound 28, 4-Phenoxyphenylmethyl β-hydroxy-α-methylene-3-pyridinepropanoate]
IC50 P. infestans [2]: B (a) | IC50 [3]: 6 to 15 µM | IC50 [4]: < 5 µM

C=C(C(=O)OCc1ccc(Cl)c(Cl)c1)C(O)c1nccs1 (stereo not drawn) [Compound 4, 3,4-Dichlorophenylmethyl β-hydroxy-α-methylene-2-thiazolepropanoate]
IC50 [1]: < 5 µM | IC50 P. infestans [2]: B (d) | IC50 S. nodorum [3]: C (b) | IC50 S. tritici [4]: B (b)

C=C(C(=O)Oc1ccc(Cl)cc1)C(O)c1cccnc1 (stereo not drawn) [Compound 19, 4-Chlorophenyl β-hydroxy-α-methylene-3-pyridinepropanoate]
IC50 [1]: > 25 µM | IC50 P. infestans [2]: A (c) | IC50 S. nodorum [3]: C (c) | IC50 S. tritici [4]: A (c)

C=C(C(=O)OCc1ccc(Oc2cccc(Cl)c2)cc1)C(O)c1cccnc1 (stereo not drawn) [Compound 24, 4-(3-Chlorophenoxy)phenylmethyl β-hydroxy-α-methylene-3-pyridinepropanoate]
IC50 [1]: > 25 µM | IC50 [2]: 16 to 25 µM | IC50 S. nodorum [3]: C (c) | IC50 S. tritici [4]: A (d)

O=C(OCc1cccc(C(F)(F)F)c1)/C(=C\c1ccccc1)C(O)c1cccnc1 (stereo not drawn) [Compound 5, 3-(Trifluoromethyl)phenylmethyl Z-α-(α-hydroxy-3-pyridylmethyl)-3-phenylpropenoate]
IC50 [1]: > 25 µM | IC50 [2]: > 25 µM | IC50 S. nodorum [3]: A (b) | IC50 S. tritici [4]: A (b)
